Measured values from patent US20160122386A1, “V1A RECEPTOR AGONISTS” (FERRING B.V., priority 2014, published 2016).
Read-outs that look alike come from different tables or passages of the source. Starred links: 1 amine or outer side, 2 acyl side, 3 side chain; linkers in the order of their positions; H or OH if unused. Positions of bridges follow the written chain, without caps; N, C: chain ends. Non-standard residues stand in square brackets, D forms with d. Residues, ends and D or L forms follow the SMILES beside them. Chains are numbered I, II in the order given. *: point of attachment. Phe(4-Cl) = N[C@@H](Cc1ccc(Cl)cc1)C(=O)O; X2 = N=C(N)N[C@@H](CCCCN[*:1])C(=O)[*:2]; dPhe(4-Cl) = N[C@H](Cc1ccc(Cl)cc1)C(=O)O; isoGln = NC(=O)[C@H](CCC(=O)[*:2])N[*:1]; εLys = N[C@@H](CCCCN[*:1])C(=O)[*:2]; Orn = NCCC[C@H](N)C(=O)O; Dab = NCC[C@H](N)C(=O)O; PhAc = O=C(Cc1ccccc1)*

Biological target: T1, human V1aR (Homo sapiens, UniProt P37288)
T1 construct: expressed in transfected cells
T1 sequence (P37288 whole entry): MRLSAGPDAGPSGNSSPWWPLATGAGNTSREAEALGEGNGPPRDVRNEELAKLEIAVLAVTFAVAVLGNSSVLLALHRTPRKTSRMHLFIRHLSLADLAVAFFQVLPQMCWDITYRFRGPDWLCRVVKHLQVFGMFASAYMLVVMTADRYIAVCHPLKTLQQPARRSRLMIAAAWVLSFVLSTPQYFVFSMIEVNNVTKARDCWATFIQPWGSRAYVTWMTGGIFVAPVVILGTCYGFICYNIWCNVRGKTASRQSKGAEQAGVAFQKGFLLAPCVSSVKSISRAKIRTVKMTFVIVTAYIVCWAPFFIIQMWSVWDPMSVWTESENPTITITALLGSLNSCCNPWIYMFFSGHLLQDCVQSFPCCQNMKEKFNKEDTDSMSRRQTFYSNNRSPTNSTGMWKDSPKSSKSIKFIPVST
Assay: Agonist activity at vasopressin V1a receptors, cell-based FLIPR calcium assay
Conditions: for Emax: read-out: Efficacy Avg. (%)
Protocol: Efficacy (% MPE) is also determined as the percentage of maximal possible effect. This agonist assay utilizes cells from a stable cell line (HEK-flpin) expressing the vasopressin V1a receptor. Intracellular calcium increase in response to agonist is measured through real-time fluorescence of an intracellular calcium-sensitive dye. Cells are exposed to varying concentrations of test agonist compounds whereupon release of intracellular calcium is measured to determine the agonist potency and efficacy.
The cell line stably expresses the lacZ-Zeocin™ fusion gene and is designed for use with the Flp-In™ expression vector containing the gene of interest and the Flp recombinase expression plasmid, pOG44. The cell line contains a single integrated Flp Recombination Target (FRT) site from pFRT/lacZeo or pFRT/lacZeo2. To generate the HEK-flpin cell line stably expressing the human V1aR, the cells were co-transfected with the Flp-In™ expression vector containing the gene of interest (pcDNA5/FRT-hV1aR) and the Flp recombinase expression plasmid pOG44. Flp recombinase mediates insertion of the Flp-In™ expression vector into the genome at the integrated FRT site through site-specific DNA recombination. Stable cell lines expressing the hV1aR from the Flp-In™ expression vector can be generated by selection using hygromycin B. See Life Technologies/Invitrogen manual, Growth and Maintenance of Flp-In™ Cell Lines, Version E, published Feb.
Efficacy of this compound was set to be 100%. A stock solution of 5 mM was made up in DMSO and stored at −20° C.
HEK-flpin-hV1aR, cmcqV1aR, dV1aR and pV1aR cells were maintained in DMEM containing 10% (v/v) FBS-HI, 4 mM GlutaMAX™-I, 25 μg/mL Hygromycin B at 37° C. under 5% CO2 in a humidified atmosphere. Subculture was achieved by splitting semi-confluent cultures 1:3 to 1:6.
All compounds were made up in 100% DMSO at 10 mM stock concentrations and stored at −20° C. The compounds were allowed to thaw just before the assay. […] Typical dilution procedure of 10× final assay concentration involved a 1:100 top dilution (e.g., 2 μl Stock into 198 μl dilution medium) followed by half-log serial dilutions (e.g., 25.3 μl into 54.7 μl dilution medium supplemented with 1% DMSO (v/v)). (Dilution media consisted of phenol-red free DMEM containing 10% FBS-HI, 4 mM GlutaMAX™-I). […] The final DMSO concentration in the assay was 0.1%.
Loading Buffer was prepared by dissolving 1 vial of Calcium 4 Assay reagent in 100 mL of 1× HBSS-20 mM Hepes buffer.
The cells were loaded with Loading Buffer as follows. Cell plates were removed from the incubator and 20 μl of Loading Buffer containing probenecid (2.5 mM) was added to each well. The cells were incubated for 1 hr at 37° C. under 5% CO2 in a humidified atmosphere. The calcium image was obtained as follows.
The cell plates were transferred to FLIPR Tetra, along with a 384 well V-bottom plate pre-loaded with half-log concentrations of test compounds at 10× final test concentrations. The remaining steps of the assay were carried forward by FLIPR Tetra. A baseline reading was taken at 1-second (s) intervals for 5s followed by the addition of 5 μl of 10× compounds (test, reference, or Blank). The agonist-induced fluorescence signal was then measured for 180 s with initial 120 readings at 1-second intervals followed by 20 readings at 3-second intervals. Overall, each well in the FLIPR assay was composed of the following components in a total volume of 50 μl: 20 μl cells; 20 μl Calcium 4 Loading Buffer; […] 10× test or reference compound.

Structure (SMILES) | EC50 | Emax | EC50 (HEK-flpin cells stably expressing hV1aR, intracellular calcium fluorescence, averaged, read-out: EC50 (Avg))
CC[C@H](C)[C@@H]1NC(=O)[C@H](Cc2ccccc2)NC(=O)[C@@H](N)CSSC[C@@H](C(=O)N2CCC[C@H]2C(=O)N[C@@H](CCCNC(=O)[C@@H](N)CCCCNC(=O)CC[C@H](NC(=O)[C@H](CCCNC(=N)N)NC(=O)[C@@H]2CCCN2C(=O)[C@H](CCCNC(=N)N)NC(=O)[C@H](CC(N)=O)NC(=O)[C@H](CCC(N)=O)NC(=O)[C@H](Cc2ccccc2)NC(=O)[C@@H](Cc2ccc(Cl)cc2)NC(=O)Cc2ccccc2)C(N)=O)C(=O)NCC(N)=O)NC(=O)[C@H](CC(N)=O)NC(=O)[C@H](CCC(N)=O)NC1=O [Compound 25] (I: H-CFIQNCP[Orn]G-NH2 / II: PhAc-[dPhe(4-Cl)]FQNRPR[isoGln][εLys]; disulfide I:1-I:6; amide I:8-II:C) | 1.4 nM | 49% | –
CC[C@H](C)[C@@H]1NC(=O)[C@H](Cc2ccccc2)NC(=O)[C@@H](N)CSSC[C@@H](C(=O)N2CCC[C@H]2C(=O)N[C@@H](CCCNC(=O)[C@H](CCCCNC(=O)CC[C@H](NC(=O)[C@H](CCCNC(=N)N)NC(=O)[C@@H]2CCCN2C(=O)[C@H](CCCNC(=N)N)NC(=O)[C@H](CC(N)=O)NC(=O)[C@H](CCC(N)=O)NC(=O)[C@H](Cc2ccccc2)NC(=O)[C@@H](Cc2ccc(OC)cc2)NC(=O)Cc2ccccc2)C(N)=O)NC(=N)N)C(=O)NCC(N)=O)NC(=O)[C@H](CC(N)=O)NC(=O)[C@H](CCC(N)=O)NC1=O [Compound 26] (I: H-CFIQNCP[Orn]G-NH2 / II: PhAc-[dY](Me)FQNRPR[isoGln][X2]; disulfide I:1-I:6; amide I:8-II:C) | 0.93 nM | 32% | –
CC[C@H](C)[C@@H]1NC(=O)[C@H](Cc2ccccc2)NC(=O)[C@@H](N)CSSC[C@@H](C(=O)N2CCC[C@H]2C(=O)N[C@@H](CCCNC(=O)[C@@H](N)CCCCNC(=O)CC[C@H](NC(=O)[C@H](CCCNC(=N)N)NC(=O)[C@@H]2CCCN2C(=O)[C@H](CCCNC(=N)N)NC(=O)[C@H](CC(N)=O)NC(=O)[C@H](CCC(N)=O)NC(=O)[C@H](Cc2ccccc2)NC(=O)[C@H](Cc2ccc(Cl)cc2)NC(=O)Cc2ccccc2)C(N)=O)C(=O)NCC(N)=O)NC(=O)[C@H](CC(N)=O)NC(=O)[C@H](CCC(N)=O)NC1=O [Compound 27] (I: H-CFIQNCP[Orn]G-NH2 / II: PhAc-[Phe(4-Cl)]FQNRPR[isoGln][εLys]; disulfide I:1-I:6; amide I:8-II:C) | 1 nM | 70% | –
CC[C@H](C)[C@@H]1NC(=O)[C@H](Cc2ccccc2)NC(=O)[C@@H](N)CSSC[C@@H](C(=O)N2CCC[C@H]2C(=O)N[C@@H](CCCNC(=O)[C@@H](N)CCCCNC(=O)CC[C@H](NC(=O)[C@H](CCCNC(=N)N)NC(=O)[C@@H]2CCCN2C(=O)[C@H](C)NC(=O)[C@H](CC(N)=O)NC(=O)[C@H](CCC(N)=O)NC(=O)[C@H](Cc2ccccc2)NC(=O)[C@@H](Cc2ccc(OC)cc2)NC(=O)Cc2ccccc2)C(N)=O)C(=O)NCC(N)=O)NC(=O)[C@H](CC(N)=O)NC(=O)[C@H](CCC(N)=O)NC1=O [Compound 28] (I: H-CFIQNCP[Orn]G-NH2 / II: PhAc-[dY](Me)FQNAPR[isoGln][εLys]; disulfide I:1-I:6; amide I:8-II:C) | 1.2 nM | 44% | –
CC[C@H](C)[C@@H]1NC(=O)[C@H](Cc2ccccc2)NC(=O)[C@@H](N)CSSC[C@@H](C(=O)N2CCC[C@H]2C(=O)N[C@@H](CCNC(=O)[C@H](CCCCNC(=O)CC[C@H](NC(=O)[C@H](CCCNC(=N)N)NC(=O)[C@@H]2CCCN2C(=O)[C@H](C)NC(=O)[C@H](CC(N)=O)NC(=O)[C@H](CCC(N)=O)NC(=O)[C@H](Cc2ccccc2)NC(=O)[C@@H](Cc2ccc(OC)cc2)NC(=O)Cc2ccccc2)C(N)=O)NC(=N)N)C(=O)NCC(N)=O)NC(=O)[C@H](CC(N)=O)NC(=O)[C@H](CCC(N)=O)NC1=O [Compound 29] (I: H-CFIQNCP[Dab]G-NH2 / II: PhAc-[dY](Me)FQNAPR[isoGln][X2]; disulfide I:1-I:6 (inferred); amide I:8-II:C (inferred)) | 1.2 nM | 39% | –
CC[C@H](C)[C@@H]1NC(=O)[C@H](Cc2ccccc2)NC(=O)[C@@H](O)CSSC[C@@H](C(=O)N2CCC[C@H]2C(=O)N[C@@H](CCNC(=O)[C@@H](N)CCCCNC(=O)CC[C@H](NC(=O)[C@H](CCCNC(=N)N)NC(=O)[C@@H]2CCCN2C(=O)[C@H](C)NC(=O)[C@H](CC(N)=O)NC(=O)[C@H](CCC(N)=O)NC(=O)[C@H](Cc2ccccc2)NC(=O)[C@@H](Cc2ccc(OC)cc2)NC(=O)Cc2ccccc2)C(N)=O)C(=O)NCC(N)=O)NC(=O)[C@H](CC(N)=O)NC(=O)[C@H](CCC(N)=O)NC1=O [Compound 30] | 1.1 nM | 50% | –
CC[C@H](C)[C@@H]1NC(=O)[C@H](Cc2ccccc2)NC(=O)[C@@H](O)CSSC[C@@H](C(=O)N2CCC[C@H]2C(=O)N[C@@H](CCNC(=O)[C@@H](N)CCCCNC(=O)CC[C@H](NC(=O)[C@H](CCCNC(=N)N)NC(=O)[C@@H]2CCCN2C(=O)[C@H](CCCNC(=N)N)NC(=O)[C@H](CC(N)=O)NC(=O)[C@H](CCC(N)=O)NC(=O)[C@H](Cc2ccccc2)NC(=O)[C@@H](Cc2ccc(OC)cc2)NC(=O)Cc2ccccc2)C(N)=O)C(=O)NCC(N)=O)NC(=O)[C@H](CC(N)=O)NC(=O)[C@H](CCC(N)=O)NC1=O [Compound 31] | 0.83 nM | 63% | –
CC[C@H](C)[C@@H]1NC(=O)[C@H](Cc2ccccc2)NC(=O)[C@@H](O)CSSC[C@@H](C(=O)N2CCC[C@H]2C(=O)N[C@@H](CCNC(=O)[C@@H](N)CCCCNC(=O)CC[C@H](NC(=O)[C@H](CCCNC(=N)N)NC(=O)[C@@H]2CCCN2C(=O)[C@H](CCCCN)NC(=O)[C@H](CC(N)=O)NC(=O)[C@H](CCC(N)=O)NC(=O)[C@H](Cc2ccccc2)NC(=O)[C@@H](Cc2ccc(OC)cc2)NC(=O)Cc2ccccc2)C(N)=O)C(=O)NCC(N)=O)NC(=O)[C@H](CC(N)=O)NC(=O)[C@H](CCC(N)=O)NC1=O [Compound 32] | 1 nM | 56% | –
CC[C@H](C)[C@@H]1NC(=O)[C@H](Cc2ccccc2)NC(=O)[C@@H](O)CSSC[C@@H](C(=O)N2CCC[C@H]2C(=O)N[C@@H](CCNC(=O)[C@@H](N)CCCCNC(=O)CC[C@H](NC(=O)[C@H](CCCNC(=N)N)NC(=O)[C@@H]2CCCN2C(=O)[C@H](CCCCN)NC(=O)[C@H](CC(N)=O)NC(=O)[C@H](CCC(N)=O)NC(=O)[C@H](Cc2ccccc2)NC(=O)[C@@H](Cc2ccc(OC)cc2)NC(=O)CC(C)C)C(N)=O)C(=O)NCC(N)=O)NC(=O)[C@H](CC(N)=O)NC(=O)[C@H](CCC(N)=O)NC1=O [Compound 33] | – | 50% | 1.1 nM
CC[C@H](C)[C@@H]1NC(=O)[C@H](Cc2ccccc2)NC(=O)[C@@H](N)CSSC[C@@H](C(=O)N2CCC[C@H]2C(=O)N[C@@H](CCNC(=O)[C@@H](N)CCCCNC(=O)CC[C@H](NC(=O)[C@H](CCCNC(=N)N)NC(=O)[C@@H]2CCCN2C(=O)[C@H](CCCCN)NC(=O)[C@H](CC(N)=O)NC(=O)[C@H](CCC(N)=O)NC(=O)[C@H](Cc2ccccc2)NC(=O)[C@@H](Cc2ccc(OC)cc2)NC(=O)Cc2ccccc2)C(N)=O)C(=O)NCC(N)=O)NC(=O)[C@H](CC(N)=O)NC(=O)[C@H](CCC(N)=O)NC1=O [Compound 35] (I: H-CFIQNCP[Dab]G-NH2 / II: PhAc-[dY](Me)FQNKPR[isoGln][εLys]; disulfide I:1-I:6; amide I:8-II:C) | 1.2 nM | 43% | –
